# Assay results: PMC11324046, “Second-generation piperazine derivatives as promising radiation countermeasures” (RSC Medicinal Chemistry, 2024)
# Tested on: not listed separately
# Test: WST-1 proliferation assay, MOLT-4
# Type: cell-based
# Conditions: human, MOLT-4 cells (acute lymphoblastic leukemia), vs 0.1% DMSO control = 100%, mean ± standard deviation
# Description: (§1) A thorough analysis of antiproliferative activity was performed across various cell culture types representing different histotypes: leukemia (Jurkat, MOLT-4), lung adenocarcinoma (A549), colorectal adenocarcinoma (HT-29), pancreatic carcinoma (PANC-1), breast adenocarcinoma (MCF-7), osteosarcoma (SAOS-2), and one non-cancerous cell line (fetal lung fibroblasts MRC-5). The cell lines were exposed to the newly synthesized compounds at a concentration of 100 μM for 48 h in a single-dose treatment. Changes in cell proliferation compared to the vehicle 0.1% dimethyl sulfoxide (DMSO) control were determined using the WST-1 assay, which is based on mitochondrial dehydrogenase metabolic activities. […] The overall cytotoxic activity of each compound was expressed as growth percent (GP) – the mean of the proliferation of all cell lines treated with the same compound.
# (§2) Selected human tumor and non-tumor cell lines Jurkat (acute T-cell leukemia), MOLT-4 (acute lymphoblastic leukemia), A549 (lung carcinoma), HT-29 (colorectal adenocarcinoma), PANC-1 (pancreas epithelioid carcinoma), MCF-7 (breast adenocarcinoma), SAOS-2 (osteosarcoma) and MRC-5 (normal lung fibroblasts) were purchased from either American Type Culture Collection (ATCC; VA, USA) or Sigma-Aldrich (St. Louis, MO, USA) and cultured according to the provider's culture method guidelines. All cell lines were maintained at 37 °C in a humidified 5% carbon dioxide and 95% air incubator. Cells in the maximum range of either 10 passages for the adherent cell lines (A549, HT-29, PANC-1, MCF-7, SAOS-2, and MRC-5), or 20 passages for suspension cell lines (Jurkat, MOLT-4,) and in an exponential growth phase were used for this study. Screening of the antiproliferative effect and growth percent calculation were conducted as follows: each cell line was seeded at previously established optimal density (1–50 × 10^3 cells per well) in a 96-well plate (TPP, Trasadingen, Switzerland) and cells were allowed to settle overnight. Cells were treated for 48 h with compounds at a final concentration of 100 μM. At the end of the cultivation period, the WST-1 proliferation assay (Roche, Basel, Switzerland) was performed according to the manufacturer's protocol. The absorbance was measured at 440 nm using a Tecan Spark multimode microplate reader (Tecan, Mannedorf, Switzerland). Each value is the mean of three independent experiments and represents the percentage of proliferation (100% cell proliferation for 0.1% DMSO mock-treated control cells). The GP value was calculated for each compound tested. GP represents the mean of the percentage proliferation decrease of all cell lines treated with the same compound.
row,SMILES,"viability at 48 h, 100 µM [%]"
1,"OCCN1CCN(CC(O)COc2ccc(F)cc2)CC1 (centres unmarked) [Compound 4, 1-(4-(2-Hydroxyethyl)piperazin-1-yl)-3-(4-fluorophenoxy)propan-2-ol]",102 ± 16
2,"O=[N+]([O-])c1cc(OCC(O)CN2CCN(CCO)CC2)ccc1Cl (centres unmarked) [Compound 5, 1-(4-(2-Hydroxyethyl)piperazin-1-yl)-3-(4-chloro-3-nitrophenoxy)propan-2-ol]",84 ± 8
3,"OCCN1CCN(CC(O)COc2cccc(Cl)c2)CC1 (centres unmarked) [Compound 6, 1-(4-(2-Hydroxyethyl)piperazin-1-yl)-3-(3-chlorophenoxy)propan-2-ol]",89 ± 16
4,"NCCCNCCS [WR1065, reference compound]",3 ± 3

# Tested on: not listed separately
# Test: WST-1 proliferation assay, PANC-1
# Type: cell-based
# Conditions: human, PANC-1 cells (pancreas epithelioid carcinoma), vs 0.1% DMSO control = 100%, mean ± standard deviation
# Description: as §1, §2
row,SMILES,"viability at 48 h, 100 µM [%]"
1,"OCCN1CCN(CC(O)COc2ccc(F)cc2)CC1 (centres unmarked) [Compound 4, 1-(4-(2-Hydroxyethyl)piperazin-1-yl)-3-(4-fluorophenoxy)propan-2-ol]",97 ± 1
2,"O=[N+]([O-])c1cc(OCC(O)CN2CCN(CCO)CC2)ccc1Cl (centres unmarked) [Compound 5, 1-(4-(2-Hydroxyethyl)piperazin-1-yl)-3-(4-chloro-3-nitrophenoxy)propan-2-ol]",100 ± 3
3,"OCCN1CCN(CC(O)COc2cccc(Cl)c2)CC1 (centres unmarked) [Compound 6, 1-(4-(2-Hydroxyethyl)piperazin-1-yl)-3-(3-chlorophenoxy)propan-2-ol]",94 ± 3
4,"NCCCNCCS [WR1065, reference compound]",3 ± 1

# Tested on: not listed separately
# Test: in vitro
# Conditions: male, human
# Description: (§3) To represent the overall inhibitory activity of each compound, viability was calculated as the mean of at least three independent measurements. The purpose was to determine the optimal non-toxic concentration for subsequent use in radioprotection tests.
# (§4) Whole blood from a healthy donor was diluted 1 : 1 with Dulbecco's phosphate buffered saline (Sigma-Aldrich, St. Louis, MO, USA). The diluted blood was slowly and carefully pipetted onto an equal volume of Histopaque®-1077 (Sigma-Aldrich, St. Louis, MO, USA). The entire process was carried out at room temperature. Subsequently, centrifugation was performed at 700 × g with the slowest acceleration and deceleration for 20 min at 20 °C. The resulting PBMCs ring was aspirated and centrifuged at 450 × g for 10 min at 20 °C with normal acceleration and deceleration. The cells were washed twice with RPMI 1640 medium with GlutaMAX (Gibco by Thermo Fisher Scientific, Waltham, MA, USA). After the second wash and centrifugation, the cells were diluted with cultivation medium RPMI 1640 with GlutaMAX supplemented with 20% inactivated fetal bovine serum (both Gibco by Thermo Fisher Scientific, Waltham, MA, USA) and 1% antibiotic solution of penicillin, 10 000 IU ml^−1 and streptomycin, 10 mg ml^−1 (Sigma-Aldrich, St. Louis, MO, USA). At the end, the cells were counted using Türk's solution.
# (§5) PBMCs were plated into 96-well plates at a cell density of approximately 5 × 10^4 cells per well in a volume of 100 μl. Cells were treated with tested compounds in concentrations of 10, 20, 50, 100, 200, 500, and 1000 μM to determine the optimal non-toxic concentration for each. Cells were incubated for 48 h in a humidified atmosphere with 5% CO2 at 37 °C. 20 μl of MTS – CellTiter 96® AQueous One Solution Cell Proliferation Assay (Promega, Madison, WI, USA) was added to each well 4 h before spectrometric analysis. Cell viability was then determined by measuring absorbance at 490 nm using the Synergy H1 instrument by BioTek. The absorbance of the cell-free culture medium was used as a blank and subtracted from the absorbance readings obtained during the experiment. The viability of untreated control cells was set as 100%.
SMILES,"viability at 48 h, 10 µM [%]","viability at 48 h, 20 µM [%]","viability at 48 h, 50 µM [%]","viability at 48 h, 100 µM [%]","viability at 48 h, 200 µM [%]","viability at 48 h, 500 µM [%]","viability at 48 h, 1000 µM [%]","viability at 48 h, 2000 µM [%]","viability at 48 h, 5000 µM [%]"
"OCCN1CCN(CC(O)COc2ccc(F)cc2)CC1 (centres unmarked) [Compound 4, 1-(4-(2-Hydroxyethyl)piperazin-1-yl)-3-(4-fluorophenoxy)propan-2-ol]",104 ± 18,103 ± 26,112 ± 30,107 ± 30,110 ± 33,110 ± 28,105 ± 10,53 ± 5,39 ± 5
"O=[N+]([O-])c1cc(OCC(O)CN2CCN(CCO)CC2)ccc1Cl (centres unmarked) [Compound 5, 1-(4-(2-Hydroxyethyl)piperazin-1-yl)-3-(4-chloro-3-nitrophenoxy)propan-2-ol]",121 ± 25,99 ± 8,111 ± 7,102 ± 9,107 ± 5,79 ± 3,44 ± 11,,
"OCCN1CCN(CC(O)COc2cccc(Cl)c2)CC1 (centres unmarked) [Compound 6, 1-(4-(2-Hydroxyethyl)piperazin-1-yl)-3-(3-chlorophenoxy)propan-2-ol]",94 ± 12,96 ± 5,99 ± 4,99 ± 7,96 ± 6,94 ± 7,51 ± 4,,
"NCCCNCCS [WR1065, reference compound]",57 ± 39,47 ± 34,19 ± 17,16 ± 14,21 ± 8,27 ± 9,,,

# Tested on: PBMCs
# Test: Ex vivo cytotoxicity on PBMCs, MTS colorimetric assay
# Conditions: 10 μM (lowest tested concentration), 48 h
# Description: as §3, §4, §5
row,SMILES,Decrease in cell viability of PBMCs [%]
1,"NCCCNCCS [WR1065, reference compound]",43

# Same assay, conditions: male, human, 48 h
row,SMILES,Optimal non-toxic concentration (PBMC viability not below 100% at 0.05 significance level and higher than 90%) [µM]
1,"OCCN1CCN(CC(O)COc2ccc(F)cc2)CC1 (centres unmarked) [Compound 4, 1-(4-(2-Hydroxyethyl)piperazin-1-yl)-3-(4-fluorophenoxy)propan-2-ol]",1000
2,"O=[N+]([O-])c1cc(OCC(O)CN2CCN(CCO)CC2)ccc1Cl (centres unmarked) [Compound 5, 1-(4-(2-Hydroxyethyl)piperazin-1-yl)-3-(4-chloro-3-nitrophenoxy)propan-2-ol]",200
3,"OCCN1CCN(CC(O)COc2cccc(Cl)c2)CC1 (centres unmarked) [Compound 6, 1-(4-(2-Hydroxyethyl)piperazin-1-yl)-3-(3-chlorophenoxy)propan-2-ol]",500

# Tested on: not listed separately
# Test: Annexin V/PI flow cytometry viability of irradiated MOLT-4 cells
# Type: cell-based, human
# Conditions: human, MOLT-4 cells, not irradiated; 100 μM, no irradiation, 24 h; representative histogram Fig. 5A; read-out: Viable (annexin V/PI negative) MOLT-4 cells, compound alone
# Description: (§6) Consequently, we investigated whether the pre-application of these substances can augment the survival of MOLT-4 cells after irradiation exposure. The radioprotective investigation utilized a leukemia MOLT-4 cell model of hematopoietic origin with flow cytometric quantification of cell viability via annexin V/propidium iodide staining.
# (§7) In the following step, at 24 h after irradiation, MOLT-4 cell viability and cell death were determined by flow cytometry using an Alexa Fluor® 488 annexin V/Dead Cell Apoptosis kit (Life Technologies, Grand Island, NY, USA) following the manufacturer's instructions. The Alexa Fluor®488 annexin V/Dead Cell Apoptosis kit employs the property of Alexa Fluor®488 conjugated to annexin V to bind to phosphatidylserine in the presence of Ca^2+; and the ability of propidium iodide to enter cells with damaged cell membranes and bind to DNA. For each sample, a minimum of 20 000 events were acquired using a CytoFLEX LX flow cytometer (Beckman Coulter, Miami, FL, USA). List mode data were analyzed using Kaluza Analysis 2.1 software (Beckman Coulter, Miami, FL, USA).
row,SMILES,"viability at 2 h, 100 µM [%]"
1,"NCCCNCCS [WR1065, reference compound]",64

# Same assay, conditions: human, MOLT-4 cells, not irradiated; 200 μM, no irradiation, 24 h; representative histogram Fig. 6A; read-out: Viable (annexin V/PI negative) MOLT-4 cells, compound alone
row,SMILES,"viability at 24 h, 200 µM [%]"
1,"NCCCNCCS [WR1065, reference compound]",18

# Tested on: MOLT-4 cells
# Test: as above
# Type: cell-based, human
# Conditions: 100 μM and 200 μM, 2 Gy
# Description: as §6, §7
row,SMILES,Radioprotective effect in MOLT-4 cells (in words)
1,"NCCCNCCS [WR1065, reference compound]",did not exhibit distinct radioprotective effects

# Same assay, conditions: Homo sapiens, MOLT-4, light or radiation study; 100 μM, 2 h pretreatment, 2 Gy, 24 h, annexin V/PI negative cells; read-out: Viability rate of MOLT-4 cells relative to 2 Gy irradiation alone (100%)
row,SMILES,viability at 100 µM [%]
1,"OCCN1CCN(CC(O)COc2ccc(F)cc2)CC1 (centres unmarked) [Compound 4, 1-(4-(2-Hydroxyethyl)piperazin-1-yl)-3-(4-fluorophenoxy)propan-2-ol]",143
2,"OCCN1CCN(CC(O)COc2cccc(Cl)c2)CC1 (centres unmarked) [Compound 6, 1-(4-(2-Hydroxyethyl)piperazin-1-yl)-3-(3-chlorophenoxy)propan-2-ol]",135

# Same assay, conditions: Homo sapiens, MOLT-4; 100 μM, 2 h pretreatment, 2 Gy, 24 h; representative histogram Fig. 5A (2 Gy alone 26 %); read-out: Viable (annexin V/PI negative) MOLT-4 cells, compound + 2 Gy
row,SMILES,viability at 100 µM [%]
1,"OCCN1CCN(CC(O)COc2ccc(F)cc2)CC1 (centres unmarked) [Compound 4, 1-(4-(2-Hydroxyethyl)piperazin-1-yl)-3-(4-fluorophenoxy)propan-2-ol]",35
2,"O=[N+]([O-])c1cc(OCC(O)CN2CCN(CCO)CC2)ccc1Cl (centres unmarked) [Compound 5, 1-(4-(2-Hydroxyethyl)piperazin-1-yl)-3-(4-chloro-3-nitrophenoxy)propan-2-ol]",32
3,"OCCN1CCN(CC(O)COc2cccc(Cl)c2)CC1 (centres unmarked) [Compound 6, 1-(4-(2-Hydroxyethyl)piperazin-1-yl)-3-(3-chlorophenoxy)propan-2-ol]",37
4,"NCCCNCCS [WR1065, reference compound]",19

# Same assay, conditions: Homo sapiens, MOLT-4; 200 μM, 2 h pretreatment, 2 Gy, 24 h, annexin V/PI negative cells; read-out: Viable MOLT-4 cells relative to 2 Gy radiation alone (100%)
row,SMILES,viability at 200 µM [%]
1,"OCCN1CCN(CC(O)COc2ccc(F)cc2)CC1 (centres unmarked) [Compound 4, 1-(4-(2-Hydroxyethyl)piperazin-1-yl)-3-(4-fluorophenoxy)propan-2-ol]",145
2,"OCCN1CCN(CC(O)COc2cccc(Cl)c2)CC1 (centres unmarked) [Compound 6, 1-(4-(2-Hydroxyethyl)piperazin-1-yl)-3-(3-chlorophenoxy)propan-2-ol]",137

# Same assay, conditions: Homo sapiens, MOLT-4; 200 μM, 2 h pretreatment, 2 Gy, 24 h; representative histogram Fig. 6A (2 Gy alone 27 %); read-out: Viable (annexin V/PI negative) MOLT-4 cells, compound + 2 Gy
row,SMILES,viability at 200 µM [%]
1,"OCCN1CCN(CC(O)COc2ccc(F)cc2)CC1 (centres unmarked) [Compound 4, 1-(4-(2-Hydroxyethyl)piperazin-1-yl)-3-(4-fluorophenoxy)propan-2-ol]",37
2,"O=[N+]([O-])c1cc(OCC(O)CN2CCN(CCO)CC2)ccc1Cl (centres unmarked) [Compound 5, 1-(4-(2-Hydroxyethyl)piperazin-1-yl)-3-(4-chloro-3-nitrophenoxy)propan-2-ol]",30
3,"OCCN1CCN(CC(O)COc2cccc(Cl)c2)CC1 (centres unmarked) [Compound 6, 1-(4-(2-Hydroxyethyl)piperazin-1-yl)-3-(3-chlorophenoxy)propan-2-ol]",39
4,"NCCCNCCS [WR1065, reference compound]",9
